# From publication PMC8780828 (Viruses, 2021)
# Where two headings read alike, the source gives them in different places.
# How the values were obtained:
# CYP2B6 [1] = target: T1, CYP2B6 (Homo sapiens, UniProt P20813); experiment: in vitro; conditions: microsomes, pH 7.4
# [2] = system: pseudovirus NL4-3ΔEnv-NanoLuc/SARS-CoV; experiment: microbe, parasite or virus in culture; type: cell-based; conditions: Severe acute respiratory syndrome coronavirus, HT-1080; n=3; read-out: IC50
# CYP2C8 [3] = target: T2, CYP2C8 (Homo sapiens, UniProt P10632); experiment: biochemical
# T2 sequence (P10632 whole entry): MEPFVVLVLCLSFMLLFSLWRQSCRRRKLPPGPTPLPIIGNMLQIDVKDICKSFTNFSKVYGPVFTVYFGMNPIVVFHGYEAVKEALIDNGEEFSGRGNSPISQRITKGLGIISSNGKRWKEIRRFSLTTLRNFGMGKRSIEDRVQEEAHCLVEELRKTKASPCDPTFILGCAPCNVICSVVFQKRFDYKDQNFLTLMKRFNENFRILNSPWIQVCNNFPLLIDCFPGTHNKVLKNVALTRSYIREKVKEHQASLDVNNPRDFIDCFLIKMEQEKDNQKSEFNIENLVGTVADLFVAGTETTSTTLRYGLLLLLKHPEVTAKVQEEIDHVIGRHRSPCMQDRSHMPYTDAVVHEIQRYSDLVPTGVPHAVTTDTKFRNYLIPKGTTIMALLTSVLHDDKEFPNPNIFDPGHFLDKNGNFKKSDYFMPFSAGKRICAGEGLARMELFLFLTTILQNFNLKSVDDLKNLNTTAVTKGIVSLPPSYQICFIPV
# β-lactamase = type: biochemical
# CYP3A = CYP3A (Homo sapiens, UniProt P08684); conditions: n=1
# CYP3A, sequence (P08684 2-503): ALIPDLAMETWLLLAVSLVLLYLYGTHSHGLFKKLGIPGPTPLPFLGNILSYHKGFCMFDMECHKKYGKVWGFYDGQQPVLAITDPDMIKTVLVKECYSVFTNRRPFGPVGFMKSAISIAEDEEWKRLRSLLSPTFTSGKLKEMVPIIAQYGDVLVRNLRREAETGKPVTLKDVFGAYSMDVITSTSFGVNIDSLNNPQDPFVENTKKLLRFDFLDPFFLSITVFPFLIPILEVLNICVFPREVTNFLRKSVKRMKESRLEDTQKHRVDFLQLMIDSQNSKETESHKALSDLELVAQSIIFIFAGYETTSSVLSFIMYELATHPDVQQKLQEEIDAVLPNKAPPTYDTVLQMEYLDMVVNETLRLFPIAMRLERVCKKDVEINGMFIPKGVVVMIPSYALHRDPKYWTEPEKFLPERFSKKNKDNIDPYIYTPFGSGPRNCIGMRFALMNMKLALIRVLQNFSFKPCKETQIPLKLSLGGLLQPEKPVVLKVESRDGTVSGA
# CYP2C8 [4] = target: T2, CYP2C8; experiment: in vitro; conditions: microsomes, pH 7.4
# [5] = system: SARS-CoV-2 (US_WA-1/2020); type: cell-based
# [6] = system: pseudovirus NL4-3ΔEnv-NanoLuc/MERS-CoV; experiment: microbe, parasite or virus in culture; type: cell-based; conditions: Middle East respiratory syndrome-related coronavirus, MRC5; n=3; read-out: IC50
# CYP2B6 [7] = target: T1, CYP2B6; experiment: biochemical
# CYP2C19 = CYP2C19 (Homo sapiens, UniProt P33261); experiment: in vitro; conditions: microsomes, pH 7.4
# CYP2C19, sequence (P33261 whole entry): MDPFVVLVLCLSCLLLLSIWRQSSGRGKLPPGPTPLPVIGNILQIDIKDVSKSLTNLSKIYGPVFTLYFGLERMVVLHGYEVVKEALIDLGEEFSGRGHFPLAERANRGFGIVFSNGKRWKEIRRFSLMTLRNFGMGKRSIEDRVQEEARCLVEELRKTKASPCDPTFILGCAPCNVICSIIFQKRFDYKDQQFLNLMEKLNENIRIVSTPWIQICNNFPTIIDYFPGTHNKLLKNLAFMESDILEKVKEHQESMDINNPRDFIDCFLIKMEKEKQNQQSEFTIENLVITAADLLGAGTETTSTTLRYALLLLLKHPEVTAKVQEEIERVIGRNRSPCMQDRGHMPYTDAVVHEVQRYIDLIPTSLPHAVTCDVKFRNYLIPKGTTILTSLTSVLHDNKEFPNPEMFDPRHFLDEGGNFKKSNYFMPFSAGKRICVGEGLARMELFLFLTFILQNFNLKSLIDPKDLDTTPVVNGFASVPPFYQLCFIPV
# [8] = system: pseudovirus NL4-3ΔEnv-NanoLuc/MERS-CoV; experiment: microbe, parasite or virus in culture; type: cell-based; conditions: Middle East respiratory syndrome-related coronavirus, Huh-7; n=3; read-out: IC50
# CYP2C9 = CYP2C9 (Homo sapiens, UniProt P11712); experiment: biochemical
# CYP2C9, sequence (P11712 whole entry): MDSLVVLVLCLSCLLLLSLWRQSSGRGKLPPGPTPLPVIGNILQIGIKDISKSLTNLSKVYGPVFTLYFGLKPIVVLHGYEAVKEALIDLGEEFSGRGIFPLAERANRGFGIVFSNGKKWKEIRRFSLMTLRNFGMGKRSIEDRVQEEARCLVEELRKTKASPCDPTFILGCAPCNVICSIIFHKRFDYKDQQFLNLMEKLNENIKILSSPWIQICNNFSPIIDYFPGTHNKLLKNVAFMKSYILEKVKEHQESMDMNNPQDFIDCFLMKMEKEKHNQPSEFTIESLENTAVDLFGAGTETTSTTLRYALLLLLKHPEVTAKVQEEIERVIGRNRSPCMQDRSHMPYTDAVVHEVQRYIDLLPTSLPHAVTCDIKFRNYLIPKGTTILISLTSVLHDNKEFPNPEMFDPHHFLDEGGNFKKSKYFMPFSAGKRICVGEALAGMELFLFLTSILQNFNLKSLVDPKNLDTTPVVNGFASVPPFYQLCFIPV
# [9] = target: SARS-CoV-2 spike S1 subunit protein (Severe acute respiratory syndrome coronavirus 2, UniProt P0DTC2); type: binding
# [10] = system: control pseudovirus NL4-3.Luc.R-E-/A-MLV; experiment: Control pseudovirus A-MLV assay in 293T/ACE2 cells; type: cell-based, amphotropic murine leukemia virus (A-MLV); conditions: NL43, 293T/ACE2
# Trypsin = type: biochemical
# [11] = system: pseudovirus NL4-3ΔEnv-NanoLuc/SARS-CoV-2; experiment: organism not typed; type: cell-based; conditions: A549-ACE2; n=3
# CYP2D6 = CYP2D6 (Homo sapiens, UniProt P10635); experiment: in vitro; conditions: microsomes, pH 7.4
# CYP2D6, sequence (P10635 whole entry): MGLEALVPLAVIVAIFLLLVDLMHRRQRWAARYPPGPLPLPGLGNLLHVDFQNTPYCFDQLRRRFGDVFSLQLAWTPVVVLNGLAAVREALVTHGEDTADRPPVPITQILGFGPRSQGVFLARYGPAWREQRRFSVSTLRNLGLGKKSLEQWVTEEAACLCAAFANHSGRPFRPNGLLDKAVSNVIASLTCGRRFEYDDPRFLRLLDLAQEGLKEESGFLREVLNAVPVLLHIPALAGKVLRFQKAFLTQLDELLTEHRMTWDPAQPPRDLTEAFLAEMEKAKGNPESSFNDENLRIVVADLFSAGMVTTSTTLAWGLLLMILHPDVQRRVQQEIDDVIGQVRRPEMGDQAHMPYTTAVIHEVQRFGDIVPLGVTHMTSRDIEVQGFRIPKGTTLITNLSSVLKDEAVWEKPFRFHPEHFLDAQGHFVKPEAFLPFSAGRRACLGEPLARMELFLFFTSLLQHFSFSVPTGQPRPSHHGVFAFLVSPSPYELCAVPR
# [12] = target: malate dehydrogenase (MDH); type: biochemical
# CYP1A2 = CYP1A2 (Homo sapiens, UniProt P05177); experiment: biochemical
# CYP1A2, sequence (P05177 whole entry): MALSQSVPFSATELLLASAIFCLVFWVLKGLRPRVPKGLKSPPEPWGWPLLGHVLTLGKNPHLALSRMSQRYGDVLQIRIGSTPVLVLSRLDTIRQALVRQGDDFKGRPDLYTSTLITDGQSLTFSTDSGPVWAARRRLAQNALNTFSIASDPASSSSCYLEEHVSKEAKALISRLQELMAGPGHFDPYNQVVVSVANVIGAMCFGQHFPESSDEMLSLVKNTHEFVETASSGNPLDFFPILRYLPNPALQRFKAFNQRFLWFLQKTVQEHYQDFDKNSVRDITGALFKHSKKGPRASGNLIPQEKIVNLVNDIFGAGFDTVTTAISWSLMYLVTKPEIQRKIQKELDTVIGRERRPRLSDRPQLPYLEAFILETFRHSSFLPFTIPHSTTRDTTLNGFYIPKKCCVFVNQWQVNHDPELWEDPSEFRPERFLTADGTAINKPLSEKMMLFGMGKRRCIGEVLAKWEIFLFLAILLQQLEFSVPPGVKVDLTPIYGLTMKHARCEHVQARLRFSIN
# in vivo = conditions: female, Sprague Dawley, rat; for MRT inf: MRT0-inf_obs; for half-life: t1/2
# [13] = system: NL4-3ΔEnv-NanoLuc/SARS-CoV-2; experiment: organism not typed; type: cell-based
# [14] = rat, in vivo
# [15] = system: pseudovirus NL4-3ΔEnv-NanoLuc/SARS-CoV-2; experiment: organism not typed; type: cell-based; conditions: HT-1080; n=3
# [16] = system: pseudovirus NL4-3ΔEnv-NanoLuc/SARS-CoV; experiment: microbe, parasite or virus in culture; type: cell-based; conditions: Severe acute respiratory syndrome coronavirus, A549-ACE2; n=3; read-out: IC50
# in vitro [17] = conditions: both, human, microsomes, pH 7.4
# pseudovirus SARS-CoV-2 = experiment: organism not typed; type: cell-based
# [18] = system: pseudovirus NL4-3ΔEnv-NanoLuc/SARS-CoV-2; experiment: SARS-CoV-2 pseudovirus assay with pre-treated 293T/ACE2 cells; type: cell-based; conditions: 293T/ACE2 cells pre-treated with compound 30 min before infection
# in vitro [19] = conditions: both, human, plasma
# [20] = female, Sprague Dawley, iv, 5 mg/kg
# T1 sequence (P20813 whole entry): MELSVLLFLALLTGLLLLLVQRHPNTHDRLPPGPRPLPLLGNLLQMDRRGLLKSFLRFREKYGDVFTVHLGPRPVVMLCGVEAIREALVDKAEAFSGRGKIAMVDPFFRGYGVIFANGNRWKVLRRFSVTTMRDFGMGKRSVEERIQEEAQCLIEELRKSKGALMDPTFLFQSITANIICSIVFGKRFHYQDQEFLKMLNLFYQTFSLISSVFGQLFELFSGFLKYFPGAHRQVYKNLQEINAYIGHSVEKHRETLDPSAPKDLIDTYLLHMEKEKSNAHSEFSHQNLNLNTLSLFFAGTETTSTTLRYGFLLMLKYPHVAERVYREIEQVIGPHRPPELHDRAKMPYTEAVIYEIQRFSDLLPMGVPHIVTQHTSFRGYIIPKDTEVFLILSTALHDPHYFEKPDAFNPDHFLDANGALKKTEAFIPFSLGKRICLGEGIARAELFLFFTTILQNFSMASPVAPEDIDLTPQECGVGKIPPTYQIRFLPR
smiles,measurement,setting,value
O=C(O)c1cc(-c2ccc(/C=C3\SC(=S)N(CCc4ccccc4)C3=O)o2)ccc1Cl [NBCoV1],activity at 0.0137 µM,CYP2B6 [1],97.5%
same,activity at 0.0412 µM,CYP2B6 [1],98.1%
same,activity at 0.123 µM,CYP2B6 [1],90.4%
same,activity at 0.37 µM,CYP2B6 [1],94.2%
same,activity at 1.11 µM,CYP2B6 [1],76.9%
same,activity at 3.33 µM,CYP2B6 [1],47%
same,activity at 10 µM,CYP2B6 [1],15.2%
same,IC50,[2],39 ± 8.2 nM
same,IC50,CYP2C8 [3],2080 nM
same,IC50,β-lactamase,> 2000 nM
same,% of Control Enzyme Activity,CYP3A; 0.0137 μM,96.6%
same,% of Control Enzyme Activity,CYP3A; 0.0412 μM,97.0%
same,% of Control Enzyme Activity,CYP3A; 0.123 μM,94.8%
same,% of Control Enzyme Activity,"CYP3A; 0.370 μM, 0.37 µM",96.3%
same,% of Control Enzyme Activity,CYP3A; 1.11 μM,94.6%
same,% of Control Enzyme Activity,CYP3A; 3.33 μM,82.2%
same,% of Control Enzyme Activity,CYP3A; 10 μM,59.9%
same,activity at 0.0137 µM,CYP2C8 [4],102%
same,activity at 0.0412 µM,CYP2C8 [4],89%
same,activity at 0.123 µM,CYP2C8 [4],98.3%
same,activity at 1.11 µM,CYP2C8 [4],76.9%
same,activity at 3.33 µM,CYP2C8 [4],25.3%
same,activity at 10 µM,CYP2C8 [4],3.87%
same,IC100,[5],> 10 µM
same,IC50,[6],76.5 ± 0.3 nM
same,IC50,CYP2B6 [7],3.19 µM
same,activity at 0.0137 µM,CYP2C19,103%
same,activity at 0.0412 µM,CYP2C19,110%
same,activity at 0.123 µM,CYP2C19,101%
same,activity at 0.37 µM,CYP2C19,102%
same,activity at 1.11 µM,CYP2C19,92%
same,activity at 3.33 µM,CYP2C19,70.8%
same,activity at 10 µM,CYP2C19,40.7%
same,IC50,[8],95 ± 22 nM
same,IC50,CYP2C9,5.01 µM
same,kd,[9],0.0257 s⁻¹
same,IC50,[10],1397 ± 12 nM
same,IC50,Trypsin,> 2000 nM
same,IC50,[11],63.6 ± 4.6 nM
same,IC50,CYP2D6,> 10 µM
same,activity at 0.0137 µM,CYP2D6,95.8%
same,activity at 0.0412 µM,CYP2D6,98.7%
same,activity at 0.123 µM,CYP2D6,98.6%
same,activity at 0.37 µM,CYP2D6,101%
same,activity at 1.11 µM,CYP2D6,97%
same,activity at 3.33 µM,CYP2D6,84.3%
same,activity at 10 µM,CYP2D6,59.2%
same,IC50,[12],> 2000 nM
same,IC50,CYP1A2,7.4 µM
same,bioavailability,in vivo; F% (bioavailability),20%
same,C0,"in vivo; iv, 5 mg/kg",7410 ng/mL
same,Tmax,"in vivo; iv, 5 mg/kg",0.25 h
same,Cmax,"in vivo; iv, 5 mg/kg",7820 ng/mL
same,MRT inf,"in vivo; iv, 5 mg/kg",4.02 h
same,half-life,"in vivo; iv, 5 mg/kg",214 min
same,Tmax,"in vivo; po, 10 mg/kg",2 h
same,Cmax,"in vivo; po, 10 mg/kg",1500 ng/mL
same,MRT inf,"in vivo; po, 10 mg/kg",14 h
same,half-life,"in vivo; po, 10 mg/kg",678 min
same,IC100 (range of IC100 values detected in the three cell lines),[13],0.25 to 1 µM
same,IC50,[13]; read-out: IC50 (range over the three cell lines),32.3 to 63.4 nM
same,F% (bioavailability),"[14]; female, Sprague Dawley",20.1%
same,CLobs,[14]; [20],0.00013 (mg/kg)/(ng/mL)/h
same,Vss_obs,[14]; [20],0.00053 (mg/kg)/(ng/mL)
same,AUC0-t,"[14]; iv, 5 mg/kg","37,515.91 ng/mL ∗ h"
same,AUC0-t,"[14]; po, 10 mg/kg","12,023.00 ng/mL ∗ h"
same,Vz/F_obs,"[14]; po, 10 mg/kg",0.01078 (mg/kg)/(ng/mL)
same,IC50,[15],32.3 ± 4.6 nM
same,IC50,[16],98 ± 4 nM
same,half-life,in vitro [17],112 min
same,microsomal CLint,in vitro [17],12.4 µL/min/mg
same,remaining at 0.25 h,in vitro [17],101%
same,remaining at 0.5 h,in vitro [17],80.5%
same,remaining at 1 h,in vitro [17],68.9%
same,remaining at 1.5 h,in vitro [17],69.5%
same,remaining at 2 h,in vitro [17],41.6%
same,IC50,pseudovirus SARS-CoV-2; 293T/ACE2,50 nM
same,IC50,pseudovirus SARS-CoV-2; read-out: IC50,45 nM
same,solubility,"physchem; pH 7.4, Solubility (AVG)",4.72 µM
same,solubility,"physchem; pH 7.4, Solubility, single replicates (R1, R2)",4.35 µM
same,IC50,[18],> 2000 nM
same,fraction unbound,in vitro [19],< 0.005
same,fraction unbound,"in vitro [19]; % Bound, single replicates (R1, R2)",< 0.005
